The values that follow come from PubChem BioAssay (NCI).

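Step 1: Grow cells in 96-well plates. Step 2: Expose to compound for 48 hours at 5 concentrations. Step 3: Interpolate endpoints linearly; if unreached, use highest concentration. TGI: concentration producing complete growth inhibition.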

What all share (test): NCI tumour cell line growth inhibition, 48 h
The subject of assay [1] is 786-0 renal.
The test system of assay [2] is DU-145 prostate.
The test system of assay [3] is HT29 colon.
Assay [4] relates to LXFL 529 NSCLC.
The subject of assay [5] is OVCAR-4 ovarian.
Assay [6] relates to OVCAR-5 ovarian.
In assay [7] the test system is RXF 393 renal.
Assay [8] concerns SK-MEL-2 melanoma.
Assay [9] deals with XF 498 CNS.

Consider `O=c1[nH]c(=O)n(C2OC(CO)C(O)C(O)C2O)cc1F` (stereo not given), for which the TGI in assay [1], in assay [2], in [3], in assay [4], in [5] and in assay [6] was over 100 µM in each case. The TGI in assay [7], in assay [8] and in assay [9] was over 100 µM throughout.
On to `c1cc2c(ncc3cscc32)s1`, for which the TGI in assay [1], in assay [2], in assay [3], in assay [4], in assay [5] and in [6] was over 100 µM in each case. Moreover, the TGI in [7], in assay [8] and in assay [9] was over 100 µM in each case.
With `CCc1ccc(Nc2ccc([N+](=O)[O-])cc2[N+](=O)[O-])cc1`, the TGI in [1], in [3], in [4], in assay [5], in assay [6] and in assay [7] was over 100 µM throughout. Besides, the TGI in assay [8] and in [9] was over 100 µM in each case.
As to `CS(=O)(=O)c1cc(=O)c2ccccc2s1`, the TGI in [1] worked out at 13 µM; in assay [2], 33.3 µM; in assay [3] it was 16.2 µM; in assay [4] it was 3.02 µM; in [5] it was 7.8 µM; in [6] it was 22.3 µM. Moreover, the TGI in assay [7] was determined as 9.05 µM; in assay [8], 30.4 µM; in [9], 4.4 µM.
In the case of `FC(F)(F)c1nc(-c2ccccc2)oc1Sc1nnc(Sc2oc(-c3ccccc3)nc2C(F)(F)F)s1`, the TGI in assay [1] was 74 µM; in assay [3], over 100 µM; in [4], over 64.6 µM; in [5], 28 µM; in [6] it was over 100 µM; in assay [7], 49.3 µM. Further, the results for the TGI in [8] and in assay [9] were over 100 µM and 26.7 µM, respectively.
As for `O=C(/C=C/c1c(O)ccc2ccccc12)c1ccccc1`, the TGI in assay [1] was over 100 µM; in assay [3], 30.2 µM; in assay [4] it was over 100 µM; in [5], over 100 µM; in assay [6] it was over 100 µM; in assay [7], over 100 µM. Moreover, the TGI in assay [8] and in assay [9] was over 100 µM in each case.
On to `Cc1[nH]c2ccccc2c1C1Cc2ccccc2N1C(=O)/C(Cl)=C/c1ccccc1` (stereo not given), for which the TGI was over 100 µM in [1]; over 100 µM in assay [3]; over 100 µM in assay [4]; over 100 µM in assay [5]; over 100 µM in assay [6]; 89 µM in assay [7]. Further, the TGI in assay [8] and in assay [9] was over 100 µM throughout.
On to `N#C/C(=C\c1cc2ccccc2c2ccccc12)c1ccccc1`, for which the TGI in assay [1] is 18 µM; in assay [3] it was 18.1 µM; in assay [4] it was over 100 µM; in assay [5], 34.6 µM; in assay [6] it was 98.6 µM; in [7] it was 18.6 µM. The results for the TGI in assay [8] and in [9] were 15.4 µM and 12.5 µM, respectively.
Regarding `COc1ccc(/C(Cl)=C(\C=O)c2ccc([N+](=O)[O-])cc2)cc1`, the TGI in assay [1] is 31.6 µM; in assay [3] it was 29.9 µM; in assay [4] it was over 27.6 µM; in assay [5], 57.3 µM; in assay [6], over 100 µM; in [7] it was 38.6 µM. For the same compound, the TGI in assay [8] was determined as 41.3 µM; in assay [9], 40.4 µM.
